One series addresses T1, hERG (Homo sapiens, UniProt Q12809).
T1 construct: purchased ThermoFisher; host or cells: hERG cell membrane supplied with the kit
Description: hERG fluorescence polarization inhibition experiment. The conditions noted are these: hERG cell membrane, 25° C. 2 hours, read-out: hERG (IC50 range, competitive binding vs tracer). The protocol: hERG (Ether-a-go-go-related Gene Potassium Channel) Inhibition Experiment
Reagent: Predictor™ hERG Fluorescence Polarization Assay Kit, Manufacturer: ThermoFisher
The above test kit was used to evaluate the potential of the compound for inducing heart QT prolongation. According to the method as indicated in the specification of the test kit, the test compound, the positive control (E4031) and negative control (Experimental buffer solution) in the kit were added to a microwell plate containing hERG cell membrane, and then a tracer having high affinity to hERG was added. The microwell plate was then incubated at 25° C. for 2 hours, a BMG PHAREStar polyfunctional enzyme marker was used to test the variations in the fluorescent polarization value. By calculating the percent inhibition rates (%) at different concentrations, the range of the half inhibition concentration (IC50) was determined:
Percent inhibition rate (%)=(1-(mP of the test compound-mP of 30 μM E4031)/(mP of experimental buffer solution-mP of 30 μM E4031))*100.
For orientation: The hERG channel carries a current that helps repolarise heart muscle cells.

A further series has as its target T2, VAP-1 (Homo sapiens, UniProt Q16853).
T2 construct: purchased R&D Systems
T2 sequence (Q16853 1-763): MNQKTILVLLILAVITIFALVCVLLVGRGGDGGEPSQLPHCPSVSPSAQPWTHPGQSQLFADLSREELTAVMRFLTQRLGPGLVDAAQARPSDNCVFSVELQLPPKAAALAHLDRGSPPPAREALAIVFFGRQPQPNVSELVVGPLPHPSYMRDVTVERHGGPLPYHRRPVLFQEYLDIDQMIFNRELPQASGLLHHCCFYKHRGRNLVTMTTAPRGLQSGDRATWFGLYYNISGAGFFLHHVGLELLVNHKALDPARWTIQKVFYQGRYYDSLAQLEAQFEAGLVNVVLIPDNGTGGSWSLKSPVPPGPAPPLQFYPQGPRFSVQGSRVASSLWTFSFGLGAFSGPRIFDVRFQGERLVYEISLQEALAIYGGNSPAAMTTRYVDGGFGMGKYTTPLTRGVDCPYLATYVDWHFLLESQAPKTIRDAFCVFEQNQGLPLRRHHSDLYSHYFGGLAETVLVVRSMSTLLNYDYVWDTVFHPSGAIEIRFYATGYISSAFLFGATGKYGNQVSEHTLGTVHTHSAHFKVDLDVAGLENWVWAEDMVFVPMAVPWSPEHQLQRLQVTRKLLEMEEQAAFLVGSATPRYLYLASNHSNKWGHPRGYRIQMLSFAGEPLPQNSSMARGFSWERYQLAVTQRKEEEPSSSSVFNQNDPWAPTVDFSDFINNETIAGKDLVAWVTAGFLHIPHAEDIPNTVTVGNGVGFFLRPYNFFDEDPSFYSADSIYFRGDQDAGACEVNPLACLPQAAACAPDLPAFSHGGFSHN
Description: Inhibition of the enzymatic activity of VAP-1 in vitro (Amplex Red). Type of series: biochemical. To be noted: VAP-1 protein about 20 nM, 10 min pre-incubation, benzylamine substrate; read-out: IC50, inhibition against the enzymatic activity of VAP-1. The protocol: Inhibition Experiment Against the Enzymatic Activity of VAP-1(Vascular Adhesion Protein 1) in vitro
Test kit: Amplex® Red Monoamine Oxidase Assay, Manufacturer: ThermoFisher
Reaction buffer solution: 50 mM PBS, pH 7.4
Enzyme: VAP-1, Manufacturer: R&D Systems
VAP-1 protein (about 20 nM) and different concentrations of the test compound were pre-incubated at room temperature for 10 minutes, followed by an addition of […] benzylamine hydrochloride, 1 U/mL HRP and 200 μM Amplex Red reagent according to the specification of the test kit to start the reaction. The reaction plate was placed in the enzyme marker, and in kinetic mode, fluorescence signals were measured at Ex/Em=540/590 nm. The relative inhibition activity of each concentration group was calculated, wherein the ratio (slope) of fluorescence signal to reaction time in the linear range is the reaction rate, the vehicle group (DMSO) is the negative control, and the reaction buffer solution group (without enzymes and the compounds) is the blank control. The half inhibition concentration (IC50) of the compound was calculated according to four-parameter model fitting curve.

Counter-ions that a name gives are not always drawn.

T1 sequence (Q12809 whole entry): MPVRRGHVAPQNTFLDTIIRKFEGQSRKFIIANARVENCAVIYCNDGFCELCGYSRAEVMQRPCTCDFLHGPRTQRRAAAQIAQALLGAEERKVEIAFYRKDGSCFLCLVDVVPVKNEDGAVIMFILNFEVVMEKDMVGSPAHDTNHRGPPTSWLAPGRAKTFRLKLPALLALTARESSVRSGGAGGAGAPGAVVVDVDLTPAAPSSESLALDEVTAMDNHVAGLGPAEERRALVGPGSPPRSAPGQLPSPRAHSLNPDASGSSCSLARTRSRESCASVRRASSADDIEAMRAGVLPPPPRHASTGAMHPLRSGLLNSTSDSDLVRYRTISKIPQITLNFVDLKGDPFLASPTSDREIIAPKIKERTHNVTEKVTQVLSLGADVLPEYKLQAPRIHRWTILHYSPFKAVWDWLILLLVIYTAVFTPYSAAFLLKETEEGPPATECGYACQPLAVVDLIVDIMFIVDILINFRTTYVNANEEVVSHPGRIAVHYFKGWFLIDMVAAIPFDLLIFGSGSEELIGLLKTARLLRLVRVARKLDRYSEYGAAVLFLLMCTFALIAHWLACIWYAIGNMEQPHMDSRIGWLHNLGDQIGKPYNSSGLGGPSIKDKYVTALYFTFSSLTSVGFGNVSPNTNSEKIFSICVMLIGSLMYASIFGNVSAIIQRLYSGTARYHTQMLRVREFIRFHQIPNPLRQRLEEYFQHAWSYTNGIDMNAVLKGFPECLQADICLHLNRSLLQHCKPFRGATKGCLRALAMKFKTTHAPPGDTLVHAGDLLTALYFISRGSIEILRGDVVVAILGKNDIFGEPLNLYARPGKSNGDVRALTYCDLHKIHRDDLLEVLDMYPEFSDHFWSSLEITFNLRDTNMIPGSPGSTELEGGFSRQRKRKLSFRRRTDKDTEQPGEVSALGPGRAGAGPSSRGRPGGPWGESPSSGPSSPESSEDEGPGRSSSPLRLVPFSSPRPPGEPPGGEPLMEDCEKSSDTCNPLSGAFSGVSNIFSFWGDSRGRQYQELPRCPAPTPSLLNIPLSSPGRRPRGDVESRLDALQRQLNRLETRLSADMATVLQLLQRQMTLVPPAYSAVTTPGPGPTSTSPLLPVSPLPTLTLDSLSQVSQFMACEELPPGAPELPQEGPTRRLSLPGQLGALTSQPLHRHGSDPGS

On to `NCC(=CF)COc1ccc(C(=O)Nc2ccccc2)cc1` [TM1, N-phenyl-4-((2-aminomethyl-3-fluoroallyl)oxy)-benzamide trifluoroacetate], for which the IC50 (in general, the concentration needed to halve the response being measured) at hERG is above 10000 nM; on VAP-1 it was 0.5 nM.
As to `NCC(=CF)COc1ccc(C(=O)Nc2cccc3ccccc23)cc1` [TM8, 4-((2-(aminomethyl)-3-fluoroallyl)oxy)-N-(naphthyl)benzoamide trifluoroacetate], the IC50 on VAP-1 amounted to 2.2 ± 0.1 nM.
In the case of `NC/C(=C\F)COc1ccc2c(c1)CCNC2=O` [TM26-E, (E)-6-((2-aminomethyl-3-fluoroallyl)oxy)-3,4-dihydroisoquinolin-1(2H)-one trifluoroacetate], the IC50 at hERG is above 10000 nM; on VAP-1, 9.9 ± 1.2 nM.
On the same counts, the results for `NC/C(=C\F)COc1ccc2c(c1)CN(Cc1ccc(Cl)cc1)C2=O` [TM33-E, (E)-5-((2-aminomethyl-3-fluoroallyl)oxy)-2-(4-chlorobenzyl)isoindolin-1-one] are above 10000 nM and 4.9 ± 0.5 nM.
On to `NC/C(=C/F)COc1ccc2c(c1)CN(Cc1ccc(Cl)cc1)C2=O` [TM33-Z, (Z)-5-((2-aminomethyl-3-fluoroallyl)oxy)-2-(4-chlorobenzyl)isoindolin-1-one], for which the IC50 on VAP-1 is 6.3 ± 1.2 nM.
On to `NCC(=CF)COc1ccc(-c2ncccn2)cc1` [TM39, 2-(4-(2-pyrimidyl)phenoxymethyl)-3-fluoroallylamine trifluoroacetate], for which the IC50 at hERG is above 30000 nM; on VAP-1, 1 ± 0.1 nM.
Regarding `NC/C(=C\F)COc1ccc(-c2nc3ccc(Cl)cc3s2)cc1` [TM41-E, (E)-2-(4-(6-chloro-benzothiazol-2-yl)phenoxymethyl)-3-fluoroallylamine trifluoroacetate], the IC50 on VAP-1 worked out at 3.1 ± 0.5 nM.
Consider `NC/C(=C/F)COc1ccc(-c2nc3ccc(Cl)cc3s2)cc1` [TM41-Z, (Z)-2-(4-(6-chloro-benzothiazol-2-yl)phenoxymethyl)-3-fluoroallylamine trifluoroacetate], for which the IC50 at VAP-1 worked out at 3.5 ± 0.4 nM.
As to `NC/C(=C/F)COc1ccc(-c2nc3ccccc3[nH]2)cc1` [TM42-Z, (Z)-2-(4-(1H-benzoimidazol-2-yl)phenoxymethyl)-3-ftuoroallylamine trifluoroacetate], the IC50 at hERG was above 10000 nM; on VAP-1, 1.5 ± 0.1 nM.
Take `NC/C(=C\F)COc1ccc(C(=O)N2CCC(c3ccccc3)CC2)cc1` [TM44-E, (E)-(4-((2-aminomethyl-3-fluoroallyl)oxy)phenyl)-(4-phenylpiperidine-1-yl) methanone trifluoroacetate]: the IC50 at VAP-1 came out at 12.9 ± 4.4 nM.
On the same count and under the same terms, the result for `NC/C(=C/F)COc1ccc(C(=O)N2CCC(c3ccccc3)CC2)cc1` [TM44-Z, (Z)-(4-((2-aminomethyl-3-fluoroallyl)oxy)phenyl)-(4-phenylpiperidine-1-yl) methanone trifluoroacetate] reads 9.7 ± 0.9 nM.
Turning to `NC/C(=C\F)COc1ccc(C(=O)N2CCc3ccccc3C2)cc1` [TM45-E, (E)-(4-((2-aminomethyl-3-fluoroallyl)oxy)phenyl)-(3,4-di hydroisoquinoline-2 (1H)-yl)methanone trifluoroacetate], the IC50 on hERG was above 10000 nM; on VAP-1, 2.4 ± 0.7 nM.
On the same counts, the results for `NC/C(=C/F)COc1ccc(C(=O)N2CCc3ccccc3C2)cc1` [TM45-Z, (Z)-(4-((2-aminomethyl-3-fluoroallyl)oxy)phenyl)-(3,4-dihydroiso-quinoline-2(1H)-yl)methanone trifluoroacetate] are above 10000 nM and 1.1 ± 0.1 nM.
For the molecule `NCC(=CF)COc1ccc(C(=O)N2CCC(c3ccccc3)CC2)cc1F` [TM48, (4-((2-aminomethyl-3-fluoroallyl)oxy)-3-fluorophenyl)-(4-phenylpiperidin-1-yl)methanone trifluoroacetate], the IC50 at VAP-1 came out at 6.5 ± 0.5 nM.
Still for that read-out and setting: the result for `NC/C(=C\F)COc1ccc(C(=O)N2CCC(c3ccccc3)CC2)cc1F` [TM48-E, (E)-(4-((2-(aminomethyl)-3-fluoroally)oxy)-3-fluorophenyl)-(4-phenylpiperidin-1-yl)methanone trifluoroacetate] reads 9.2 ± 1.1 nM; that for `NC/C(=C/F)COc1ccc(C(=O)N2CCC(c3ccccc3)CC2)cc1F` [TM48-Z, (Z)-(4-((2-(aminomethyl)-3-fluoroallyl)oxy)-3-fluorophenyl)-(4-phenylpiperidin-1-yl)methanone trifluoroacetate], 10.6 ± 1.4 nM.
Turning to `CN(C)c1cccc(NC(=O)c2ccc(OCC(=CF)CN)cc2)c1` [TM62, N-(3-dimethylaminophenyl)-4-(2-aminomethyl-3-fluoroallyloxy)-benzamide trifluoroacetate], the IC50 was above 30000 nM on hERG and 1.8 ± 0.2 nM at VAP-1.
`NC/C(=C\F)COc1ccc(C(=O)Nc2ccc(F)cc2)cc1Cl` [TM65-E, (E)-N-(4-fluorophenyl)-4-((2-aminomethyl-3-fluoroallyl)oxy)-3-chloro-benzamide trifluoroacetate]: at VAP-1, the IC50 was 4.1 ± 0.7 nM.
Still for that read-out and setting: the result for `NC/C(=C/F)COc1ccc(C(=O)Nc2ccc(F)cc2)cc1Cl` [TM65-Z, (Z)-N-(4-fluorophenyl)-4-((2-aminomethyl-3-fluoroallyl)oxy)-3-chloro-benzamide trifluoroacetate] reads 1.7 ± 0.3 nM.
Same read-out and setting: to `NCC(=CF)COc1ccc(C(=O)N2CCc3cc(C(F)(F)F)ccc3C2)cc1` [TM68, (4-(2-aminomethyl-3-fluoroallyloxy)phenyl)-(6-trifluoromethyl-3,4-dihydroisoquinol-2(1H)-yl)-methanone trifluoroacetate] belongs 9.9 ± 1.8 nM.
On to `NCC(=CF)COc1ccc(C(=O)N2CCc3ccccc3[C@@H]2c2ccccc2)cc1` [TM69, (S)-(4-(2-aminomethyl)-3-fluoroallyloxy)phenyl)-(1-phenyl-3,4-dihydroisoquinol-2(1H)-yl)-methanone trifluoroacetate], for which the IC50 on VAP-1 stood at 10.4 ± 1.4 nM.
On the same count and under the same terms, to `NCC(=CF)COc1ccc(C(=O)N2Cc3ccc(Cl)cc3C2)cc1` [TM71, (4-(2-aminomethyl-3-fluoroallyloxy)phenyl)-(5-chloroisoindolin-2-yl)-methanone trifluoroacetate] belongs 2.4 ± 0.2 nM; to `NCC(=CF)COc1ccc(C(=O)N2CCc3ccccc3C2)cc1F` [TM72, (4-((2-aminomethyl-3-fluoroallyl)oxy)-3-fluorophenyl)-(3,4-tetrahydroisoquinoline-2(1H)-yl)methanone trifluoroacetate], 3.4 ± 0.5 nM.
The same measure, in the same setting: the result for `NC/C(=C\F)COc1ccc(C(=O)N2CCc3c(Cl)cccc3C2)cc1F` [TM73-E, (E)-(4-((2-aminomethyl-3-fluoroallyl)oxy)-3-fluorophenyl)-(5-chloro-3,4-di-hydroisoquinoline-2(1H)-yl)methanone trifluoroacetate] reads 4.2 ± 0.3 nM; that for `NC/C(=C/F)COc1ccc(C(=O)N2CCc3c(Cl)cccc3C2)cc1F` [TM73-Z, (Z)-(4-((2-aminomethyl-3-fluoroallyl)oxy)-3-fluorophenyl)-(5-chloro-3,4-di-hydroisoquinoline-2(1H)-yl)methanone trifluoroacetate], 3.7 ± 0.3 nM.
The same measure, in the same setting: the result for `NC/C(=C\F)COc1ccc(-c2nc3ccc(Cl)cc3s2)cc1F` [TM74-E, (E)-2-(4-(6-chloro-benzothiazol-2-yl)-2-fluorophenoxymethyl)-3-fluoroallylamine trifluoroacetate trifluoroacetate] reads 3.2 ± 0.2 nM; that for `NC/C(=C/F)COc1ccc(-c2nc3ccc(Cl)cc3s2)cc1F` [TM74-Z, (Z)-2-(4-(6-chloro-benzothiazol-2-yl)-2-fluorophenoxymethyl)-3-fluoroallylamine trifluoroacetate trifluoroacetate], 5.3 ± 0.2 nM.
